Measurements taken from paper PMC3639963, “A New Class of Small Molecule Inhibitor of BMP Signaling” (PLoS ONE, 2013).

Experiments:
Assay in all cases: Nanosyn kinase profiling
Format in all cases: biochemical
LTK = target: T1, LTK (Homo sapiens, UniProt P29376); conditions: read-out: Percentage inhibition; for inhibition at 0.1 µM: 0.1 µM inhibitor; for inhibition at 1 µM: 1 µM inhibitor
T1 construct: purchased Nanosyn (enzymatic panel); SGC in-house recombinant human kinases (DSF panel); Invitrogen (ALK1-6)
In short: (§1)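 Percent inhibition of each kinase was measured with the inhibitor at 0.1 µM and at 1 µM, as part of a 200-kinase human selectivity panel.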

GRK6 = target: T2, GRK6 (Homo sapiens, UniProt P43250); conditions: read-out: Percentage inhibition; for inhibition at 0.1 µM: 0.1 µM inhibitor; for inhibition at 1 µM: 1 µM inhibitor
T2 construct: purchased Nanosyn (enzymatic panel); SGC in-house recombinant human kinases (DSF panel); Invitrogen (ALK1-6)
In short: as §1

PKA = target: T3, PKA (Homo sapiens, UniProt P17612); conditions: read-out: Percentage inhibition; for inhibition at 0.1 µM: 0.1 µM inhibitor; for inhibition at 1 µM: 1 µM inhibitor
T3 construct: purchased Nanosyn (enzymatic panel); SGC in-house recombinant human kinases (DSF panel); Invitrogen (ALK1-6)
In short: as §1

BTK = target: T4, BTK (Homo sapiens, UniProt Q06187); conditions: read-out: Percentage inhibition; for inhibition at 0.1 µM: 0.1 µM inhibitor; for inhibition at 1 µM: 1 µM inhibitor
T4 construct: purchased Nanosyn (enzymatic panel); SGC in-house recombinant human kinases (DSF panel); Invitrogen (ALK1-6)
T4 sequence (Q06187 whole entry): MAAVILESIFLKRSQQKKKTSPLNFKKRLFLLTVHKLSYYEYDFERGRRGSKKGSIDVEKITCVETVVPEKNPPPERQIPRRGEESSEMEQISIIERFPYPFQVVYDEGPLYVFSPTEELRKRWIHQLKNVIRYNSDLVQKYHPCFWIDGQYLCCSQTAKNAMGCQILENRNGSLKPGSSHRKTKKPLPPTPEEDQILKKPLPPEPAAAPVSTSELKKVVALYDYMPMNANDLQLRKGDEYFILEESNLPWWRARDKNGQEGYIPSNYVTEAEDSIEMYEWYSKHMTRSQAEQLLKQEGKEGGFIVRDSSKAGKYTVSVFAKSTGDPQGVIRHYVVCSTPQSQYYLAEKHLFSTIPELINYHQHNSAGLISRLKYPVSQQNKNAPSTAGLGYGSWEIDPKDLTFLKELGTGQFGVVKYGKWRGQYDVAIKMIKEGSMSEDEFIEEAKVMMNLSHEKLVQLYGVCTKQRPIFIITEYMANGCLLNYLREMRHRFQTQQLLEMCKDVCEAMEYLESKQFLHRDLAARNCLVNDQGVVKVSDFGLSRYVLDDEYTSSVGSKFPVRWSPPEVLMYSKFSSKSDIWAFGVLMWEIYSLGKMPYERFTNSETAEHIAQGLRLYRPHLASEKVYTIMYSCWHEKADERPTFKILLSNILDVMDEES
In short: as §1

PTK5 = target: T5, PTK5 (Homo sapiens, UniProt P42685); conditions: read-out: Percentage inhibition; for inhibition at 0.1 µM: 0.1 µM inhibitor; for inhibition at 1 µM: 1 µM inhibitor
T5 construct: purchased Nanosyn (enzymatic panel); SGC in-house recombinant human kinases (DSF panel); Invitrogen (ALK1-6)
In short: as §1

EGFR = target: T6, EGFR (Homo sapiens, UniProt P00533); conditions: read-out: Percentage inhibition; for inhibition at 0.1 µM: 0.1 µM inhibitor; for inhibition at 1 µM: 1 µM inhibitor
T6 construct: purchased Nanosyn (enzymatic panel); SGC in-house recombinant human kinases (DSF panel); Invitrogen (ALK1-6)
In short: as §1

CDK2/cycE = target: T7, CDK2/cycE (Homo sapiens, UniProt P24941); conditions: read-out: Percentage inhibition; for inhibition at 0.1 µM: 0.1 µM inhibitor; for inhibition at 1 µM: 1 µM inhibitor
T7 construct: purchased Nanosyn (enzymatic panel); SGC in-house recombinant human kinases (DSF panel); Invitrogen (ALK1-6)
In short: as §1

ARG = target: T8, ARG (Homo sapiens, UniProt P42684); conditions: for inhibition at 0.1 µM / inhibition at 1 µM: read-out: Percentage inhibition; for inhibition at 1 µM: 1 µM inhibitor
T8 construct: purchased Nanosyn (enzymatic panel); SGC in-house recombinant human kinases (DSF panel); Invitrogen (ALK1-6)
In short: as §1

CDK4/cycD = target: T9, CDK4/cycD (Homo sapiens, UniProt P11802); conditions: read-out: Percentage inhibition; for inhibition at 0.1 µM: 0.1 µM inhibitor; for inhibition at 1 µM: 1 µM inhibitor
T9 construct: purchased Nanosyn (enzymatic panel); SGC in-house recombinant human kinases (DSF panel); Invitrogen (ALK1-6)
In short: as §1

MET = target: T10, MET (Homo sapiens, UniProt P08581); conditions: read-out: Percentage inhibition; for inhibition at 0.1 µM: 0.1 µM inhibitor; for inhibition at 1 µM: 1 µM inhibitor
T10 construct: purchased Nanosyn (enzymatic panel); SGC in-house recombinant human kinases (DSF panel); Invitrogen (ALK1-6)
T10 sequence (P08581 25-1390): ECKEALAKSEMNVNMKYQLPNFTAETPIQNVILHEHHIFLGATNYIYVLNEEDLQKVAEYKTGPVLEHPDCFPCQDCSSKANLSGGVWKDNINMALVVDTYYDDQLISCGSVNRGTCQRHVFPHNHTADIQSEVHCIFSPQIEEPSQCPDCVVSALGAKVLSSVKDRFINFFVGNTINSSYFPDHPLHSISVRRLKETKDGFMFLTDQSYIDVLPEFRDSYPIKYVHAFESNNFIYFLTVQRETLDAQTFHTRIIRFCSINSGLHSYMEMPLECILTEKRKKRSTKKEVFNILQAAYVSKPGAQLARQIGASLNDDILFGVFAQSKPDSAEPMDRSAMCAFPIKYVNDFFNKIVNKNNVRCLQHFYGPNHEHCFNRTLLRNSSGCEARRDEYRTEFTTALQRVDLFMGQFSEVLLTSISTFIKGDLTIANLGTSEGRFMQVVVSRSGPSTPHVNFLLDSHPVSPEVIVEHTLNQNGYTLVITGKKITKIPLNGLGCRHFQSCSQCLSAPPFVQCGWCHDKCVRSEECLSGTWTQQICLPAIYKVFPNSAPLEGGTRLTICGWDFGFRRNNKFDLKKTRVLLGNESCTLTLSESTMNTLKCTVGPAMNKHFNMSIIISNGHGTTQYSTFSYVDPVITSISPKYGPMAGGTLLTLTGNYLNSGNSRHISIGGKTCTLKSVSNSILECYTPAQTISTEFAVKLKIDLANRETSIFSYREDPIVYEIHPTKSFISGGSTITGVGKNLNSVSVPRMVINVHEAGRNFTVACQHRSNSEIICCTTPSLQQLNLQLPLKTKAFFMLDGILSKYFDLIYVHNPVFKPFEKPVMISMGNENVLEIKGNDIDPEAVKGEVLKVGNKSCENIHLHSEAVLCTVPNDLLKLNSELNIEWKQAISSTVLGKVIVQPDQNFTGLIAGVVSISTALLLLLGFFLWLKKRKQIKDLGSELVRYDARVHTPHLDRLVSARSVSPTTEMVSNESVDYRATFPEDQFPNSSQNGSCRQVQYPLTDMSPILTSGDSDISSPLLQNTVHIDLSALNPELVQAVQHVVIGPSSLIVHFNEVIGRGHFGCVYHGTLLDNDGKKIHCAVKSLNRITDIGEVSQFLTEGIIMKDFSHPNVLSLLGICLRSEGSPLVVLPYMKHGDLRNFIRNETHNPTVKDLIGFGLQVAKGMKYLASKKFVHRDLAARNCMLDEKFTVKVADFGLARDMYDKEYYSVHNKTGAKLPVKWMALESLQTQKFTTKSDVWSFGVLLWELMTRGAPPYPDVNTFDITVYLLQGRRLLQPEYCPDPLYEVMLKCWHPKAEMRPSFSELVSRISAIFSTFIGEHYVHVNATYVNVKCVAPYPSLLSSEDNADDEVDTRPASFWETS
In short: as §1

MAPK3 = target: T11, MAPK3 (Homo sapiens, UniProt P27361); conditions: read-out: Percentage inhibition; for inhibition at 0.1 µM: 0.1 µM inhibitor; for inhibition at 1 µM: 1 µM inhibitor
T11 construct: purchased Nanosyn (enzymatic panel); SGC in-house recombinant human kinases (DSF panel); Invitrogen (ALK1-6)
T11 sequence (P27361 whole entry): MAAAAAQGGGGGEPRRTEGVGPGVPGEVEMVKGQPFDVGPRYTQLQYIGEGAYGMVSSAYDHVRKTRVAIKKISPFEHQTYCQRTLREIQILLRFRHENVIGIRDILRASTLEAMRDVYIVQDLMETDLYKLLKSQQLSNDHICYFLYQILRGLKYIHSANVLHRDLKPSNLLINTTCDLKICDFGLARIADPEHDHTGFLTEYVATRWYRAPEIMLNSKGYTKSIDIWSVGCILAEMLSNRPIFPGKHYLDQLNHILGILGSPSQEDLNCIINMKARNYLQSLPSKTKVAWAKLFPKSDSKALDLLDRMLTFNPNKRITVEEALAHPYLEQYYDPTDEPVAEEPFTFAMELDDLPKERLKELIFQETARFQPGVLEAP
In short: as §1

SGK1 = target: T12, SGK1 (Homo sapiens, UniProt O00141); conditions: read-out: Percentage inhibition; for inhibition at 0.1 µM: 0.1 µM inhibitor; for inhibition at 1 µM: 1 µM inhibitor
T12 construct: purchased Nanosyn (enzymatic panel); SGC in-house recombinant human kinases (DSF panel); Invitrogen (ALK1-6)
T12 sequence (O00141 1-431): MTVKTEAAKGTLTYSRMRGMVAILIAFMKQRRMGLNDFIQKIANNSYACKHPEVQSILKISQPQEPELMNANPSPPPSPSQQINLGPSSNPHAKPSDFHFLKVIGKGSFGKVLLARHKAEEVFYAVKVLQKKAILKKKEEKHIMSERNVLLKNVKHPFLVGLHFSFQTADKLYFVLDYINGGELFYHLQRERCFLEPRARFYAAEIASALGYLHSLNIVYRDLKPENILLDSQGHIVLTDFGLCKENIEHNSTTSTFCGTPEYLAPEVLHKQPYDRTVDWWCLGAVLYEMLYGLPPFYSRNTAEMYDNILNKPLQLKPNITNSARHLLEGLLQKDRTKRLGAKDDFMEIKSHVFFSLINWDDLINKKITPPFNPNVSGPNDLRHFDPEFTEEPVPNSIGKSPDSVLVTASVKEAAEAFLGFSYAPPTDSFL
In short: as §1

IGF1R = target: T13, IGF1R (Homo sapiens, UniProt P08069); conditions: read-out: Percentage inhibition; for inhibition at 0.1 µM: 0.1 µM inhibitor; for inhibition at 1 µM: 1 µM inhibitor
T13 construct: purchased Nanosyn (enzymatic panel); SGC in-house recombinant human kinases (DSF panel); Invitrogen (ALK1-6)
T13 sequence (P08069 31-1367): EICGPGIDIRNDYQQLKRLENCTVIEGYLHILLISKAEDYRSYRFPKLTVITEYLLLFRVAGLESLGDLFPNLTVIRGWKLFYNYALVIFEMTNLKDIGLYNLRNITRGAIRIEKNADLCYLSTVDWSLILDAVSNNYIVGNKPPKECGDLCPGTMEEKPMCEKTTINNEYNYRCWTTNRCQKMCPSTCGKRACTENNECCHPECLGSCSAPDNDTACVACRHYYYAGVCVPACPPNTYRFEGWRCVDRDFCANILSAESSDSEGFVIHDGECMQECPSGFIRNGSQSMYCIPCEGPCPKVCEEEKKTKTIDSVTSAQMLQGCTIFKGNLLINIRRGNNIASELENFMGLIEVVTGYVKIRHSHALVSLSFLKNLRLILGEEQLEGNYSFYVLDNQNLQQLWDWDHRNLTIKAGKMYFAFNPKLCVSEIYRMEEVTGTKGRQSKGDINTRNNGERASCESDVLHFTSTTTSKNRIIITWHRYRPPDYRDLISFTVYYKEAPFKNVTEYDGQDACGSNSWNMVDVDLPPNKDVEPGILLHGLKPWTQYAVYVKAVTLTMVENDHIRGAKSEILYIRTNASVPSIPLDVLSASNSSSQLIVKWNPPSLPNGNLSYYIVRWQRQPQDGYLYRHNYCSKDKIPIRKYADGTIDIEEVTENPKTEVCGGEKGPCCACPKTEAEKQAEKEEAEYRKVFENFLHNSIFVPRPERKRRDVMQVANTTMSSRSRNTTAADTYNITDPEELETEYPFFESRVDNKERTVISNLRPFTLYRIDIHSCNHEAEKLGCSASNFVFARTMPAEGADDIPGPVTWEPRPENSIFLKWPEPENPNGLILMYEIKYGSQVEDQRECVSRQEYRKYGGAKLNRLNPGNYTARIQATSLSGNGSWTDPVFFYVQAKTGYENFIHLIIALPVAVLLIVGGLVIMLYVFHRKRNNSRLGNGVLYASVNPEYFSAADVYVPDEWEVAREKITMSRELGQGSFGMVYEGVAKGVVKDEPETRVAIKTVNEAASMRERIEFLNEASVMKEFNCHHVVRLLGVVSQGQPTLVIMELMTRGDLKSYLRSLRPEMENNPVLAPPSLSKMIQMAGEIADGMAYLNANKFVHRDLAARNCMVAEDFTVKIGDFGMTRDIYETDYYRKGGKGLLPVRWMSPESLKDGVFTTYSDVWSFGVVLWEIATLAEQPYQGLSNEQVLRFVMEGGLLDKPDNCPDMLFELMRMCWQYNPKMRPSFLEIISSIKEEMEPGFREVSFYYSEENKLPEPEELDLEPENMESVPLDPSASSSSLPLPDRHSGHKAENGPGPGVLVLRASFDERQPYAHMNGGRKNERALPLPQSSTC
In short: as §1

CDK5/p35 = target: T14, CDK5/p35 (Homo sapiens, UniProt Q00535); conditions: read-out: Percentage inhibition; for inhibition at 0.1 µM: 0.1 µM inhibitor; for inhibition at 1 µM: 1 µM inhibitor
T14 construct: purchased Nanosyn (enzymatic panel); SGC in-house recombinant human kinases (DSF panel); Invitrogen (ALK1-6)
In short: as §1

DYRK2 = target: T15, DYRK2 (Homo sapiens, UniProt Q92630); conditions: read-out: Percentage inhibition; for inhibition at 0.1 µM: 0.1 µM inhibitor; for inhibition at 1 µM: 1 µM inhibitor
T15 construct: purchased Nanosyn (enzymatic panel); SGC in-house recombinant human kinases (DSF panel); Invitrogen (ALK1-6)
T15 sequence (Q92630 1-601): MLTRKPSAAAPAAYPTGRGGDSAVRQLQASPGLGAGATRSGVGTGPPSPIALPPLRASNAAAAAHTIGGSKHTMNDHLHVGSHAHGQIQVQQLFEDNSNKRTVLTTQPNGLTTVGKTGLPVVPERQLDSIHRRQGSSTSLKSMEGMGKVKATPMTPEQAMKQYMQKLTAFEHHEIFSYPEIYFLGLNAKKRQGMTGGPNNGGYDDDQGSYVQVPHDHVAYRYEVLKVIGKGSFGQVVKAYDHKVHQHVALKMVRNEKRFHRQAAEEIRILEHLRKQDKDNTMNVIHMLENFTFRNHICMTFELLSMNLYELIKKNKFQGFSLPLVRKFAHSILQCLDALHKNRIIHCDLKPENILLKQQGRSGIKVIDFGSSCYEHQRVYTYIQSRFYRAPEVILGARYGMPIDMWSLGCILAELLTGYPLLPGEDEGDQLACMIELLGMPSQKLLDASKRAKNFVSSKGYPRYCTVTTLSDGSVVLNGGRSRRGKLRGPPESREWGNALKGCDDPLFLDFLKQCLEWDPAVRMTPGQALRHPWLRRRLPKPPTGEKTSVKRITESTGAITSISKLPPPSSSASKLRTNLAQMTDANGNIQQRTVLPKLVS
In short: as §1

RON = target: T16, RON (Homo sapiens, UniProt Q04912); conditions: read-out: Percentage inhibition; for inhibition at 0.1 µM: 0.1 µM inhibitor; for inhibition at 1 µM: 1 µM inhibitor
T16 construct: purchased Nanosyn (enzymatic panel); SGC in-house recombinant human kinases (DSF panel); Invitrogen (ALK1-6)
T16 sequence (Q04912 25-1400): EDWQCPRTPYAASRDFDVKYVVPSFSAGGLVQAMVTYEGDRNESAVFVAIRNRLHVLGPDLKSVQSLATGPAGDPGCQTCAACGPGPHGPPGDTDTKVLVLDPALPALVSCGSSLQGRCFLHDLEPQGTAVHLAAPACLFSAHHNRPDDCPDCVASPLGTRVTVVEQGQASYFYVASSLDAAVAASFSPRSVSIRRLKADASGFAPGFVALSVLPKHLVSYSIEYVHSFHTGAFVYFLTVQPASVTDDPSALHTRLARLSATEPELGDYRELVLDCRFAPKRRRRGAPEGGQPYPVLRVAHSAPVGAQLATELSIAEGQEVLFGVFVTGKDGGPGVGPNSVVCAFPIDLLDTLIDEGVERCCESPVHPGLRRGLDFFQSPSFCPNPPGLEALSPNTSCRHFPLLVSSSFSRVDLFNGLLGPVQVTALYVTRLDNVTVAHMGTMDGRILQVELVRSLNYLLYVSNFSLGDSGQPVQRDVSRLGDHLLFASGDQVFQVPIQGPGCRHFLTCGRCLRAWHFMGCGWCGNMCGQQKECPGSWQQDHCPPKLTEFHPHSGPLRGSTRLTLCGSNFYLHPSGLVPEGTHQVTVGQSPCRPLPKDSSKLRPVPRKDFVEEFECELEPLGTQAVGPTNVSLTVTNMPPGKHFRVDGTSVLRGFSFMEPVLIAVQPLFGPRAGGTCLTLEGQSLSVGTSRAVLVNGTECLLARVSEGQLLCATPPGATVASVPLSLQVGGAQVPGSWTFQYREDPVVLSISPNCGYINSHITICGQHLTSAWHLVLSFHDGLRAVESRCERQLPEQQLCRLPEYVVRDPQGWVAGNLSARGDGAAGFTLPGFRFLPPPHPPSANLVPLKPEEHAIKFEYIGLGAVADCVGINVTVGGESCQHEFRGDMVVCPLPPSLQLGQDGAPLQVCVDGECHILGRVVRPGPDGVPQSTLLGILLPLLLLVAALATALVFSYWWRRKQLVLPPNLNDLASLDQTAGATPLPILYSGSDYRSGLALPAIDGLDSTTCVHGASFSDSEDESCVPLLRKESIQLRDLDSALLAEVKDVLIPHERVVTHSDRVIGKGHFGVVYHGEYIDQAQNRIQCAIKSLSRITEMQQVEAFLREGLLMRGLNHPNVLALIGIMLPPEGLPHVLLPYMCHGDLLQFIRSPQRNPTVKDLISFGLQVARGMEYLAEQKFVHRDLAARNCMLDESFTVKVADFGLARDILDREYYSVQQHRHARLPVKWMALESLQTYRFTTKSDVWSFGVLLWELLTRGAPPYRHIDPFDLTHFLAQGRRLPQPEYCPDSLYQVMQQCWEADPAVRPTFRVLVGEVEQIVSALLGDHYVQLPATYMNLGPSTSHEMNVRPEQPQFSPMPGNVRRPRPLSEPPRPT
In short: as §1

JAK1 = target: T17, JAK1 (Homo sapiens, UniProt P23458); conditions: read-out: Percentage inhibition; for inhibition at 0.1 µM: 0.1 µM inhibitor; for inhibition at 1 µM: 1 µM inhibitor
T17 construct: purchased Nanosyn (enzymatic panel); SGC in-house recombinant human kinases (DSF panel); Invitrogen (ALK1-6)
In short: as §1

CHEK2 = target: T18, CHEK2 (Homo sapiens, UniProt O96017); conditions: read-out: Percentage inhibition; for inhibition at 0.1 µM: 0.1 µM inhibitor; for inhibition at 1 µM: 1 µM inhibitor
T18 construct: purchased Nanosyn (enzymatic panel); SGC in-house recombinant human kinases (DSF panel); Invitrogen (ALK1-6)
In short: as §1

`COc1cc(-c2cc(-c3cccc(O)c3)cnc2N)cc(OC)c1OC` [K02288, 3-[6-amino-5-(3,4,5-trimethoxy-phenyl)-pyridin-3-yl]-phenol] gave an inhibition at 0.1 µM (LTK) of 3.6%, an inhibition at 1 µM (LTK) of 31% and an inhibition at 0.1 µM (GRK6) of 0.2%. The inhibition at 1 µM (GRK6) was 1.4%, the inhibition at 0.1 µM (PKA) was 0.3% and the inhibition at 1 µM (PKA) was 6.1%. It also gave an inhibition at 0.1 µM (BTK) of 0.5%, an inhibition at 1 µM (BTK) of 6.6% and an inhibition at 0.1 µM (PTK5) of 2.2%. For the same compound, the inhibition at 1 µM (PTK5) was 22%, the inhibition at 0.1 µM (EGFR) was 2.4% and the inhibition at 1 µM (EGFR) was 12%. For the same compound, the inhibition at 0.1 µM (CDK2/cycE) was 0.2%, the inhibition at 1 µM (CDK2/cycE) was 1.5% and the Percentage inhibition (ARG; 0.1 µM inhibitor, 0.1 µM) was greater than 50%. The inhibition at 0.1 µM (ARG; 0.1 µM inhibitor) was 66%, the inhibition at 1 µM (ARG) was 85% and the inhibition at 0.1 µM (CDK4/cycD) was 0.1%. For the same compound, the inhibition at 1 µM (CDK4/cycD) was 1.3%, the inhibition at 0.1 µM (MET) was 0.6% and the inhibition at 1 µM (MET) was -2%. The inhibition at 0.1 µM (MAPK3) was 0%, the inhibition at 1 µM (MAPK3) was -1% and the inhibition at 0.1 µM (SGK1) was 1.1%. The inhibition at 1 µM (SGK1) was -2%, the inhibition at 0.1 µM (IGF1R) was -3% and the inhibition at 1 µM (IGF1R) was -1%. For the same compound, the inhibition at 0.1 µM (CDK5/p35) was 0.3%, the inhibition at 1 µM (CDK5/p35) was 1.9% and the inhibition at 0.1 µM (DYRK2) was -1%. It also gave an inhibition at 1 µM (DYRK2) of -3%, an inhibition at 0.1 µM (RON) of 3% and an inhibition at 1 µM (RON) of -1%. For the same compound, the inhibition at 0.1 µM (JAK1) was 0%, the inhibition at 1 µM (JAK1) was 0.4% and the inhibition at 0.1 µM (CHEK2) was -1%. For the same compound, the inhibition at 1 µM (CHEK2) was 2.5%.

For `c1ccc2c(-c3cnn4cc(-c5ccc(N6CCNCC6)cc5)cnc34)ccnc2c1` [LDN-193189], the inhibition at 0.1 µM (LTK) was 3.6%, the inhibition at 1 µM (LTK) was 4% and the inhibition at 0.1 µM (GRK6) was 0%. The inhibition at 1 µM (GRK6) was 0.2%, the inhibition at 0.1 µM (PKA) was 1.4% and the inhibition at 1 µM (PKA) was 2.1%. The inhibition at 0.1 µM (BTK) was 0.5%, the inhibition at 1 µM (BTK) was 1.8% and the inhibition at 0.1 µM (PTK5) was 4.1%. The inhibition at 1 µM (PTK5) was 14%, the inhibition at 0.1 µM (EGFR) was 1.5% and the inhibition at 1 µM (EGFR) was 4.8%. The inhibition at 0.1 µM (CDK2/cycE) was 2.8%, the inhibition at 1 µM (CDK2/cycE) was 5.3% and the inhibition at 0.1 µM (ARG; 0.1 µM inhibitor) was 33%. It also gave an inhibition at 1 µM (ARG) of 73%, an inhibition at 0.1 µM (CDK4/cycD) of 0.8% and an inhibition at 1 µM (CDK4/cycD) of 8.3%. For the same compound, the inhibition at 0.1 µM (MET) was 6.2%, the inhibition at 1 µM (MET) was 8.4% and the inhibition at 0.1 µM (MAPK3) was 1.9%. For the same compound, the inhibition at 1 µM (MAPK3) was -2%, the inhibition at 0.1 µM (SGK1) was 1.1% and the inhibition at 1 µM (SGK1) was 0.8%. It also gave an inhibition at 0.1 µM (IGF1R) of 4.1%, an inhibition at 1 µM (IGF1R) of 5.4% and an inhibition at 0.1 µM (CDK5/p35) of 1.4%. It also gave an inhibition at 1 µM (CDK5/p35) of 8.5%, an inhibition at 0.1 µM (DYRK2) of 2.3% and an inhibition at 1 µM (DYRK2) of 0.2%. For the same compound, the inhibition at 0.1 µM (RON) was -2%, the inhibition at 1 µM (RON) was 12% and the inhibition at 0.1 µM (JAK1) was 2.7%. It also gave an inhibition at 1 µM (JAK1) of 4.2%, an inhibition at 0.1 µM (CHEK2) of 1.5% and an inhibition at 1 µM (CHEK2) of 2%.
